We go through 4 compounds from patent US11191801B2, “Pharmaceutical composition for preventing or treating diabetic complications and angioedema, containing natural mixture extract as active ingredient” (KOREA INSTITUTE OF ORIENTAL MEDICINE, priority 2014, dated 2021).

Structures are written as SMILES. Where “and” joins values, the source holds several entries; their conditions need not be identical. Equal values may be shown once.

Experiment [1] has as its system advanced glycation end-products (AGEs). Kind of experiment: Inhibition of producing advanced glycation end-products (AGEs) in vitro (BSA with fructose/glucose, fluorescence). The settings on record: BSA 10 mg/mL, 0.2 M fructose and 0.2 M glucose, 37° C., seven days. The class given is biochemical. The procedure:
Specifically, 10 mg/mL of bovine serum albumin (BSA, Sigma, USA) dissolved in 50 mM phosphate buffer (pH 7.4) was used as a protein source, and the solution mixed with 0.2 M fructose and 0.2 M glucose was used as a sugar source. The extracts of Examples and aminoguanidine (positive control group) were dissolved in 0.2% dimethylsulfoxide (DMSO), followed by dissolving again in 15% tween 80. The thus-prepared protein source, sugar source, and extracts were mixed, prepared at 1 mL in total, cultured at 37° C. for seven days, and allowed to undergo glycation. Herein, 0.02% sodium azide, an antibacterial agent, was added to prevent bacterial production. After cultivation, the fluorescence was measured at an absorption wavelength of 350 nm and an emission wavelength of 450 nm using a spectrofluorometric detector (Bio-TEK, USA).

In experiment [2] the target is T1, cross-link between AGE-BSA and collagen (Bos taurus, UniProt P02769).
T1 construct: purchased Transgenic Inc. Kobe, Japan (AGE-BSA); Greiner Bio-One, Germany (collagen-coated plate)
T1 sequence (P02769 25-607): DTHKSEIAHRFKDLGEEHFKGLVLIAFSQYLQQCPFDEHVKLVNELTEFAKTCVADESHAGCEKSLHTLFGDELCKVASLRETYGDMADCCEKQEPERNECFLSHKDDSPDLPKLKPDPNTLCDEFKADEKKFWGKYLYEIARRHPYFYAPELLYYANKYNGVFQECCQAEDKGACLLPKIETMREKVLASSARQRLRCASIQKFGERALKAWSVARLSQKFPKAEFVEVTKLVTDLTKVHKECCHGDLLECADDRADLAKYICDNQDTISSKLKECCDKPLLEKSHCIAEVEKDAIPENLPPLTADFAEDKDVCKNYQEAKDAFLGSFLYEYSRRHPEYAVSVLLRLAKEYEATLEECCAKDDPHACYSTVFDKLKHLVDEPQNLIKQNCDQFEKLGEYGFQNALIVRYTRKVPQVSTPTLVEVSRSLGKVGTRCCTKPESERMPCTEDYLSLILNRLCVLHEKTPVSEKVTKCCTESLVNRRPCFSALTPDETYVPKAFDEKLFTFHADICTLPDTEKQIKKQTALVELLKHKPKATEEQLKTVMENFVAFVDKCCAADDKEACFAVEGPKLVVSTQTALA
Kind of experiment: Fragmentizing cross-link of advanced glycation end-products (AGE-BSA/collagen ELISA). It is filed as biochemical. The settings on record: AGE-BSA cross-linked to collagen, 37° C., four hours. Here is the method: Specifically, 1.0 μg of AGE-BSA (Transgenic Inc. Kobe, Japan) was dispensed into a collagen-coated 96-well microtiter plate (Greiner Bio-One, Germany) and cultured at 37° C. for four hours, and then the AGE-BSA and collagen were allowed to cross-link. After washing the resultant three times with PBST (0.05%) to remove AGE-BSA not linked, a mixed extract and ALT-711 were added, and cultured at 37° C. for four hours. Thereafter, the resultant was washed with PBST (0.05%), and in order to detect the AGE-BSA remaining due to the cross-link to collagen, mouse monoclonal anti-AGE-BSA antibodies (6D12, Transgenic Inc. Kobe, Japan) were diluted at 1:250 and dispensed, followed by cultivation at 37° C. for one hour. After one hour, the resultant was washed with PBST (0.05%) and reacted with HRP-linked goat anti-mouse IgG antibodies (Santa Cruz, USA) to develop TMB (3.3′,5,5′-tetramethylbenzidine) as a substrate. Thereafter, absorbance was measured at 450 nm. The cross-link fragmentation effect (%) of AGE-BSA was calculated as shown in the following Equation 2.

The subject of experiment [3] is db/db mice. Kind of experiment: Therapeutic model with metformin co-administration: formation of acellular capillaries. The class given is in vivo. The conditions noted are these: metformin 350 mg/kg/day alone. Here is the method:
Specifically, eyeballs were enucleated from mice in the same manner as Experimental Example 6-2, and retinas were enucleated from the eyeballs and washed with running water. Thereafter, they were placed in 3% trypsin and cultured at 37° C. for one hour. The digested retinas were transferred to PBS, and the internal membrane (membrane of organelle present in cells) was removed. The vascular frame was separated from the retinal background using a glass rod, placed on a slide, and dried. The dried vascular frame was then stained with PAS and hematoxylin, and variations in cell walls and nuclei were confirmed.

Experiment [4] relates to db/db mice. Kind of experiment: Therapeutic model with metformin co-administration: damage to blood-retinal barrier. The settings on record: metformin 350 mg/kg/day alone. It is filed as in vivo. The procedure: In addition, 50 mg/mL of fluorescein-dextran (2×10^6 molecular weight) which was prepared by dissolving in sterilized PBS (1 mL) was injected into the left ventricle. After 10 minutes, the eyeballs were enucleated, and the left eyeball was placed in an eyecup. The separated retina was placed on a slide, and then mounted using aqueous mounting medium. After this was sufficiently dried, a fluorescence microscope was used to observe the same. The results were confirmed at 12 weeks, 18 weeks, and 24 weeks of inducing diabetes, respectively.

A further experiment deals with claudin-5 and occludin. Kind of experiment: Therapeutic model with metformin co-administration: damage to tight-junction proteins. The class given is in vivo, mice. The settings on record: metformin 350 mg/kg/day alone. The procedure: In addition, the resultant was dehydrated and substituted three times with xylene, thereby embedding the same with paraffin. Blocks of the embedded tissue were prepared as serial sections in a thickness of 4 μm, and placed on slides for use. In order to remove an endogenous peroxidase activity, a slide which underwent deparaffinization and function processes was allowed to react with 3% hydrogen peroxide solution for 10 minutes, and then washed three times with PBS containing 0.05% tween 20. […] Thereafter, the diluted primary antibodies were treated for one hour or overnight. After washing with PBS for one hour, a labeled streptoavidin biotin (LSAB) kit (Dako, USA) was applied to the resultants, developed with DAB, and then observed using an optical microscope. […] Thereafter, the resultants were stained with DAPI and observed using a fluorescence microscope.

Experiment [5] deals with human retinal pigment epithelial cell line (ARPE-19). The conditions noted are these: Molecular Vision 2011; 17: 3512-3522; cited from earlier work.
The next experiment deals with MNU-induced C57BL/6 mice. Kind of experiment: MNU-induced macular degeneration model, extracts versus paeoniflorin: thickness of outer nuclear layers. The class given is in vivo. The settings on record: for Thickness of outer nuclear layer (AU): orally. Here is the method: 6-week-old male C57BL/6 mice were used after purification thereof for one week. In order to induce damage and denaturation of photoreceptor cells, among morphological changes of retinal tissues which appeared in macular degeneration, 1% (0.05% acetic acid) N-methyl-N-nitrosourea (MNU, Sigma, USA) was intraperitoneally injected to the 7-week-old male C57BL/6 mice at a concentration of 60 mg/kg. The same amount of 0.05% acetic acid was intraperitoneally administered to the normal group. As the samples, CMO4 (100 mg/kg), which is the extract of cinnamon twig and moutan root bark (1:8), and CPA4 (100 mg/kg), which is the extract of cinnamon twig and peony root (1:8), paeoniflorin −2.7 (2.7 mg/kg), and paeoniflorin −12.3 (12.3 mg/kg) were suspended and prepared in 0.5% CMC and administered orally once before the MNU administration day. After administration of MNU, these resultants were orally administered once a day for seven days, respectively. In the normal and MNU-induced groups, the same amount of 0.5% CMC was orally administered.
Change in a thickness of outer nuclear layers caused by damage to photoreceptor cells in retinal nerve tissues was confirmed.
Specifically, experimental groups in which the samples were treated in the same manner as Experimental Example 8-1 were autopsied after the administration, and eyeballs were enucleated. Thereafter, the enucleated eyeballs were fixed in 10% neutralized formalin for one day, and embedded with paraffin to prepare slide sections. The slide sections were stained with H&E and observed under an optical microscope.

For the compound `N=C(N)NN` [AG, aminoguanidine], the “IC50 (μg/mL), inhibition of production of advanced glycation end-products” value in experiment [1] was found to be 82.50 ± 1.10 µg/mL.
Regarding `Cc1sc[n+](CC(=O)c2ccccc2)c1C.[Cl-]` [ALT-711], in experiment [2], the “IC50 (μg/mL), cross-link fragmentation effect of AGE-BSA” value is on record as 17,060 ± 2.35 μg/mL.
In the case of `CN(C)C(=N)N=C(N)N` [metformin], the “formation of acellular capillaries” value in the experiment on db/db mice [3] is “could not prevent the proliferation”. Besides, in the experiment with db/db mice [4] (at 18 weeks), the “outflow of fluorescent substances” value is “significantly reduced”. Further, in the experiment on db/db mice [4] (at 24 weeks), the “outflow of fluorescent substances” value was “not prevented”. Moreover, in the experiment with claudin-5 and occludin, the “amount of occludin (western blot)” value is “no significant increase” and the “claudin-5 loss (staining)” value was “snapped in various regions of blood vessels”.
`C[C@@]12C[C@@]3(O)O[C@@H](O1)[C@]1(COC(=O)c4ccccc4)[C@H]3C[C@@]12O[C@@H]1O[C@H](CO)[C@@H](O)[C@H](O)[C@H]1O` [paeoniflorin]: in experiment [5], the “apoptosis caused by H2O2” value is listed as “inhibitory effect on apoptosis”. The “Thickness of outer nuclear layer (AU)” value amounted to 1.23±0.21 AU in the experiment on MNU-induced C57BL/6 mice (Table 4: CMO4 100 mg/kg, paeoniflorin 2.7 mg/kg, NOR 1.99, MNU 1.23, listed as PF-2.7) and 1.11±0.19 AU in the experiment on MNU-induced C57BL/6 mice (Table 5: CPA4 100 mg/kg, paeoniflorin 12.4 mg/kg, NOR 1.99, MNU 0.92, listed as PF-12.4). Also, the “Thickness of outer nuclear layer (%)” value in the experiment on MNU-induced C57BL/6 mice (Table 5: CPA4 100 mg/kg, paeoniflorin 12.4 mg/kg, NOR = 100, MNU = 0.57, listed as PF-12.4) is 17.5% and 17.46 ± 17.39%.
